{
  "source": "patent US20260132158A1",
  "about": "“PHENYL OXY AMIDE KINASE INHIBITORS” (THE TRANSLATIONAL GENOMICS RESEARCH INSTITUTE, priority 2022, published 2026)",
  "target": "T1, RON Kinase (Homo sapiens, UniProt Q04912)",
  "T1 construct": "purchased Promega V8071",
  "T1 sequence (Q04912 25-1400)": "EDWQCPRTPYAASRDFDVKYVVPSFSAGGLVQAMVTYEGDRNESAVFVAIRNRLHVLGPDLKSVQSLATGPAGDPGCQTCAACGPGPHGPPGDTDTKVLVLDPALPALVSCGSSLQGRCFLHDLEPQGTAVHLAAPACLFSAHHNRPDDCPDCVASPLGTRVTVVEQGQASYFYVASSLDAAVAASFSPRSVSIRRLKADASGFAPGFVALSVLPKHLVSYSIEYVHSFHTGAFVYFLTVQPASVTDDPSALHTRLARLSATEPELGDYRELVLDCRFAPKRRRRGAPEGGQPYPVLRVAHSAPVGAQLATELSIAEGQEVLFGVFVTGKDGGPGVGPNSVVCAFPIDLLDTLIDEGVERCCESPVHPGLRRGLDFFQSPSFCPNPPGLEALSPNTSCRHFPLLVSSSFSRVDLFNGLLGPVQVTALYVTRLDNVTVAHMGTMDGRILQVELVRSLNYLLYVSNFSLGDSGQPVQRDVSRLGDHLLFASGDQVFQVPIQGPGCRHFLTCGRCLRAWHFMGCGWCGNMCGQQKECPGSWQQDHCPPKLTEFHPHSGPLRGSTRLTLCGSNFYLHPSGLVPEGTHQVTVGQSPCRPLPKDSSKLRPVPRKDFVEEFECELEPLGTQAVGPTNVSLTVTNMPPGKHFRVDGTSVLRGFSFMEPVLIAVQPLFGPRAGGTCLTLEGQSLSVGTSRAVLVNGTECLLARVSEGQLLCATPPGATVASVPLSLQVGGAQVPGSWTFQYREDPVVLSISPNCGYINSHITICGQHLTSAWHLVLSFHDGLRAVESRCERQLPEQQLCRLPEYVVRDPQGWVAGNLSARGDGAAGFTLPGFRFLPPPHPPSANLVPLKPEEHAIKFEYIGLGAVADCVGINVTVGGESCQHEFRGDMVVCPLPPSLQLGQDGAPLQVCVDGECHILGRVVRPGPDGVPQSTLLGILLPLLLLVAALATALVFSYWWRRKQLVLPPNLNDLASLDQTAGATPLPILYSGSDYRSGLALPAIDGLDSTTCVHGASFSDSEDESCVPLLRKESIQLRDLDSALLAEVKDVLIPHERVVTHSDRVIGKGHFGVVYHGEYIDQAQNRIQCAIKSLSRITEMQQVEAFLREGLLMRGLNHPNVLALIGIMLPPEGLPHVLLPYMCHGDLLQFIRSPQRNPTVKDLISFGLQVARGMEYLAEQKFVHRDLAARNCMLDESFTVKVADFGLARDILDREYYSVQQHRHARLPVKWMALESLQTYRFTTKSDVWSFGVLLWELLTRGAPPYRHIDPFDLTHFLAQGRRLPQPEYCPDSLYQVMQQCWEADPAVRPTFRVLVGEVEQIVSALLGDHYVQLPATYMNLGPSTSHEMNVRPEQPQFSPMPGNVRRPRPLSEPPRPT",
  "experiment": "RON Kinase ADP Glo Assay",
  "format": "biochemical",
  "conditions": "ratio cMET IC50 / RON IC50",
  "method": "RON Kinase ADP Glo Assay • Assay Buffer: 40 mM Tris-HCl, pH7.5, 20 mM MgCl2, 0.1 mg/mL BSA • RON Kinase+ADP-Glo™ Assay (Promega #: V8071) • Substrate: […] Axltide • Enzyme: 100 ng/μL RON Kinase • ATP: 10 mM • ADP-Glo™ Reagent • Kinase Detection Reagent • 384-well white assay plates Kinase assay was done by following instructions from the kit. Briefly, a ten-point serial dilution of compound was prepared at 5× in assay buffer with the final assay concentrations starting at 300 nM, 100 nM, 30 nM, 10 nM . . . 0 nM. Enzyme, substrate, and ATP were used at 25 ng, 2000 ng, and 25 µM, respectively. The assay plate was set up by mixing the components in a total reaction volume of 10 μL per well. The plate was centrifuged gently for 10 seconds and incubated at room temperature (RT) for 60 minutes in the dark. The ADP-Glo Reagent and kinase detection reagent were added and incubated as recommended. The reaction was quantified by measuring luminescence on the Perkin Elmer Envision plate reader.",
  "data": [
    {"smiles": "CCOc1ccn(-c2ccc(F)cc2)c(=O)c1C(=O)Nc1ccc(Oc2ccnc(N)c2P(C)(C)=O)c(F)c1", "note": "[Compound 58, N-{4-[2-amino-3-(dimethylphosphoryl)-4-pyridyloxy]-3-fluorophenyl}-4-ethoxy-1-(4-fluorophenyl)-2-oxo-1,2-dihydronicotinamide]", "values": [
      {"measurement": "Fold Selectivity (cMET/RON)", "result": "+ (represents a value below 0.5)"}
    ]}
  ]
}
